For one compound, IC50 results are on record in BindingDB's records for patent US20240083888 (Reistone Biopharma Company, 2024).

The test deals with Dipeptidyl peptidase 1 (Homo sapiens, UniProt P53634). Briefly: In Vitro Inhibitory Assay. On the procedure: The compound was diluted with DMSO to a 384-well echo plate at a concentration of 100× of the highest concentration at the beginning of the experiment. 0.2 μL of the diluted compound was pipetted to a black-bottomed 384-well reaction plate for later use. […] The solution was added to the black-bottom 384-well reaction plate ([…]). 10 μL of the buffer was added for the vehicle control group. The plate containing compounds in its wells was incubated at room temperature for 30 minutes.
Dipeptidyl peptidase 1, sequence (P53634 25-134 limits assumed): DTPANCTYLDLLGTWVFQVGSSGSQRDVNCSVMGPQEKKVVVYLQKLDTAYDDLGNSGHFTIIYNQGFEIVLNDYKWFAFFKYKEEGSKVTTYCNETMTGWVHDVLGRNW
Dipeptidyl peptidase 1, sequence (P53634 231-394 limits assumed): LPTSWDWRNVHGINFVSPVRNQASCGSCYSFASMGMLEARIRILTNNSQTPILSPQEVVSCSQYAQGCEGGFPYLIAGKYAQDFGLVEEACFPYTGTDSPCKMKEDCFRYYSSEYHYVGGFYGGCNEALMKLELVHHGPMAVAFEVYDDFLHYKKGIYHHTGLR
Dipeptidyl peptidase 1, sequence (P53634 395-463 limits assumed): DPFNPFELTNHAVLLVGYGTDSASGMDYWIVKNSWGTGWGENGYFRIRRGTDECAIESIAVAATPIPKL

Take `N#C[C@H](Cc1ccc2c(c1)CC(=O)N(c1ccc(F)cc1)C2)NC(=O)C1(N)CCCCC1` [US20240083888, Compound 58]: the 50% inhibitory concentration (IC50) (as a rule, the point on the concentration scale where inhibition reaches its midpoint) came out at 0.017 µM.
